# Test results reported in ChEMBL document CHEMBL1137057 (Bioorg Med Chem Lett, 2004).
# Key:
# [1] = target: T1, Neuronal acetylcholine receptor; alpha4/beta2 (Rattus norvegicus, UniProt P09483+P12390); experiment: Inhibition of [3H]cytisine binding to Nicotinic acetylcholine receptor alpha4-beta2 of rat cortical membranes; assay type: cell membranes, Membrane
# [2] = target: Neuronal acetylcholine receptor subunit alpha-7 (Rattus norvegicus, UniProt Q05941); experiment: Inhibition of [3H]-BTX binding to Nicotinic acetylcholine receptor alpha-7 of rat hippocampal membranes; assay type: cell membranes, Membrane
# [3] = target: T1, Neuronal acetylcholine receptor; alpha4/beta2; experiment: Inhibition of [3H]nicotine binding to Nicotinic acetylcholine receptor alpha4-beta2 of rat cortical membranes; assay type: cell membranes, Membrane
# Mus musculus = species: Mus musculus; experiment: Effective concentration in antinociception activity in mouse tail flick test; assay type: functional, organism-based
# [4] = target: T1, Neuronal acetylcholine receptor; alpha4/beta2; experiment: Inhibition of [3H]epibatidine binding to Nicotinic acetylcholine receptor alpha4-beta2 of rat cortical membranes; assay type: cell membranes, Membrane
# Sequence of Neuronal acetylcholine receptor subunit alpha-7 (Q05941 whole entry): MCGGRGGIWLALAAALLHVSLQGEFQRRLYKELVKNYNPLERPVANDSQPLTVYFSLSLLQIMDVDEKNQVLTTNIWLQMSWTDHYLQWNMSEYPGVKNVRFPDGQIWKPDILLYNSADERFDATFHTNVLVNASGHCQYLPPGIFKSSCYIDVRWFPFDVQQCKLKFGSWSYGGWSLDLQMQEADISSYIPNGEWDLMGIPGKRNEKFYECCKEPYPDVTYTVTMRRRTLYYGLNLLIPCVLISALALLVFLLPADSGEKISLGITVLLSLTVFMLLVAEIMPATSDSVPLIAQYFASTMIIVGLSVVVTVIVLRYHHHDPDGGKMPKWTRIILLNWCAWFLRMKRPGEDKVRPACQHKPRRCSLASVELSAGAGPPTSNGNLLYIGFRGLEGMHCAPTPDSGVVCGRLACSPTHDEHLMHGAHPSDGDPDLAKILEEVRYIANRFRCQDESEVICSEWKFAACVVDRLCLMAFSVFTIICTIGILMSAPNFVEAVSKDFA
# T1 sequence (P09483 whole entry): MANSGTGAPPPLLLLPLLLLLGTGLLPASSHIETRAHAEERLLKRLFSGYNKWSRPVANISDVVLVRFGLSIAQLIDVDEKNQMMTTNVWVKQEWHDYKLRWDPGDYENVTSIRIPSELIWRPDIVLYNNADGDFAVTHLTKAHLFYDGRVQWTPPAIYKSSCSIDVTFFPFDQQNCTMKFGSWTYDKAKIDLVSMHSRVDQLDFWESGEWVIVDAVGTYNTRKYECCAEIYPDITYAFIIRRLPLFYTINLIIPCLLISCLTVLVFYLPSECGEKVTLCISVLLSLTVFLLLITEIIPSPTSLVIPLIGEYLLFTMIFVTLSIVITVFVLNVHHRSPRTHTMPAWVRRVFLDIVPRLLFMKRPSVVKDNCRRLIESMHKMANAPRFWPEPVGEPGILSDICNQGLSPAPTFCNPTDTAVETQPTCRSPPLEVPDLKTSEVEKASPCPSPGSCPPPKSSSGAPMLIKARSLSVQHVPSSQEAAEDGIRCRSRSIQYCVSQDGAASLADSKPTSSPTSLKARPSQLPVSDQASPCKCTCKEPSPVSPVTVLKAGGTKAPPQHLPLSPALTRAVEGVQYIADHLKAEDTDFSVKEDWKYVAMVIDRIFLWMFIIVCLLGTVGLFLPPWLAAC
# T1 sequence (P12390 whole entry): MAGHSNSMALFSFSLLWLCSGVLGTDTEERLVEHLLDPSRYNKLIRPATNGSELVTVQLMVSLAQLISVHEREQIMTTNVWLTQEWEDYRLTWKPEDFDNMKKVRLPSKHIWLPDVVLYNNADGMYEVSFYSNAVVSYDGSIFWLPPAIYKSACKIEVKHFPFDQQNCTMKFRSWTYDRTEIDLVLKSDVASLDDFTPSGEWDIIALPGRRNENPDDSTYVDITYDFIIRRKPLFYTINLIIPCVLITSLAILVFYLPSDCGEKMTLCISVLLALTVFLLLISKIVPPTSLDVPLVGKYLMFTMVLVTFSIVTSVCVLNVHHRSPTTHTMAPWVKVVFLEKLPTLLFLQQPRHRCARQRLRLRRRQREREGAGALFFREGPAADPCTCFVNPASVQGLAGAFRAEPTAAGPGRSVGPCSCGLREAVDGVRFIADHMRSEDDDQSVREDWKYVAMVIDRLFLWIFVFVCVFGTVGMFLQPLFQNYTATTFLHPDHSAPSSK
structure (smiles),measurement,setting,value
Clc1ccc(C2CC3CNC32)cn1 (stereo not given),Ki,[1],3.9 nM
Clc1ccc(C2CC3CNC2C3)cn1 (stereo not given),Ki,[2],1600 nM
same,Ki,[3],> 38 nM
same,Ki,[1],6.6 nM
Clc1ccc(C2CC3NCC32)cn1 (stereo not given),Ki,[1],5 nM
Clc1ccc([C@@H]2CC3CC2CN3)cn1 (stereo not given in full),Ki,[2],6.3 nM
same,Ki,[3],0.05 nM
Clc1ccc([C@@H]2CC3CNC2C3)cn1 (stereo not given in full),Ki,[2],3.9 nM
same,Ki,[3],0.04 nM
same,Ki,[1],0.03 nM
Clc1ccc(C2CC3CCC2NC3)cn1 (stereo not given),EC50,Mus musculus,0.04 mg/kg
same,Ki,[1],0.47 nM
Clc1ccc(C2CC3CC2CN3)cn1 (stereo not given),Ki,[2],3300 nM
same,Ki,[3],> 38 nM
same,Ki,[1],30 nM
Clc1ccc(C2CCC3CCC2N3)cn1 (stereo not given),Ki,[4],1.6 nM
"Clc1ccc(C2CC3CCCCC2N3)cn1 (single isomer, unassigned; (-))",Ki,[3],0.35 nM
Clc1ccc(C2CC3CCCCC2N3)cn1 (stereo in doubt; 16 (+)),Ki,[3],0.13 nM
Clc1ccc(C2CC3CCCCC2N3)cn1 (stereo in doubt; 17),Ki,[3],1.25 nM
Clc1ccc(C2CC3CCC2N3)cn1 (stereo not given) [EPIBATIDINE],EC50,Mus musculus,0.01 mg/kg
